The values below come from patent US20080131534A1, “USE OF A PLANT EXTRACT OR PLANT JUICE” (Melbrosin International Produktions- und Vertriebs GesmbH & …, priority 2006, published 2008).

This assay concerns the target T1, PPAR-gamma (Homo sapiens, UniProt P37231).
T1 construct: purchased Invitrogen
T1 sequence (P37231 238-503 limits assumed): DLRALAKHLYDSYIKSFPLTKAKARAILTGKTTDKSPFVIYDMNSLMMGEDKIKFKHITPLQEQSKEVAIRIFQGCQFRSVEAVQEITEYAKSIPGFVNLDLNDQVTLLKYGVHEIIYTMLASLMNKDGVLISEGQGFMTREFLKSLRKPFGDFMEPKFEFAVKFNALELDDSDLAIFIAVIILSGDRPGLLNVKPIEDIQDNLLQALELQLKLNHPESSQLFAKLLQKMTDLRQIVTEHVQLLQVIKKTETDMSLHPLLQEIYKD
As to the kind of experiment: Polar Screen PPAR Competitive Assay (fluorescence polarization ligand binding). A general note: In fluorescence polarisation assays a small probe gives low polarisation when free and higher when bound to something large.

[1] abbreviates: Table 1, result in words, *tested to a concentration of 0.1 M.
Setting [2] is: Table 1, tested substances, read-out: EC50.
Setting [3] is: Table 3, active substances in Oregano, read-out: EC50.

Where two headings read alike, the source gives them in different places.

Broadly, the EC50 is the concentration at which the effect is half-maximal.

Experimental: The clear supernatant was further diluted by DMSO and then binding to PPARγwas tested by Peroxisome Proliferator-Activated Receptor-gamma Competitor Assay Kit, Green (Invitrogen, Carlsbad, Calif.).
PPAR-gamma-LBD and the fluorescent PPAR-gamma ligand (Fluormone™ PPAR Green) form a PPAR-gamma-LBD/Fluormone™ PPAR-gamma Green complex which has a high polarization value. If a competitor of PPAR-gamma is added the fluorescent ligand is displaced. This causes that the Fluoromone is free in solution and tumbles rapidly during its fluorescence lifetime which results in a low polarisation value.
1 μl of test compounds, which was dissolved and diluted in DMSO, was transferred into a microwell plate. Complete screening buffer was prepared by addition of 0.5 μl DTT (1M) to 1 ml PPAR Green Screening Buffer. 19 μl of this buffer was added to each well of microwell plate. […] 20 μl of this solution was added to each well. The plate is covered to protect the reagents from light and incubated for two hours at room temperature.
Data of the ligand binding assay were calculated in the following way: Polarization values were plotted against the concentration of test compound. The curve was fitted using a logistic dose-response model from Table Curve 2D software (Jandel Scientific). The used function was:

Regarding `CCCCCC(C)=O` [2-Heptanon], the half-maximal effective concentration (EC50) result under setting [1] is on record as “does not bind*”.

Regarding `O=C(/C=C/c1ccccc1O)c1ccccc1` [2-Hydroxychalcone], the EC50 under setting [2] is 2.9 µM.

As to `O=C(/C=C/c1ccccc1)c1ccccc1O` [2′-Hydroxychalcone], a half-maximal effect (EC50) was put at 20 µM.

On to `O=C(/C=C/c1ccccc1)c1ccccc1O` [2′-OH-Chalcone], for which the EC50 result (Table 1, result in words) was “does not bind”.

For `O=c1c(O)c(-c2ccccc2)oc2ccccc12` [3-Hydroxyflavon], the EC50 under setting [2] was greater than 500 µM.

`O=c1cc(-c2ccc(O)cc2)oc2cc(OC3O[C@H](CO)[C@@H](O)[C@H](O)[C@H]3O)cc(O)c12` (stereo partly shown) [Apigenin-7Glycoside]: the EC50 under setting [3] was greater than 500 µM.

For the compound `O=c1cc(-c2ccc(O)cc2)oc2cc(O)cc(O)c12` [Apigenin], the EC50 runs as follows: under setting [2], 104 µM; under setting [3], 104 µM.

As to `COc1ccc(-c2coc3cc(O)cc(O)c3c2=O)cc1` [Biochanin A], the EC50 under setting [2] came out at 20 µM and the EC50 under setting [3] is 20 µM.

With `O=C(Nc1ccccc1)c1cc([N+](=O)[O-])ccc1Cl` [CW9662, 2-Chloro-5-nitrobenanilide, reference compound], under setting [2], the EC50 was 0.0107 µM.

With `O=C(O)/C=C/c1ccc(O)c(O)c1` [Caffeic acid], the EC50 entry under setting [1] is “does not bind*”.

In the case of `COc1cc(CNC(=O)CCCC/C=C/C(C)C)ccc1O` [Capsaicin], the EC50 under setting [2] was greater than 500 µM.

Regarding `O=CC=Cc1ccccc1` [Cinnamaldehyde], the EC50 under setting [2] was determined as 10.4 µM.

Take `O=c1oc2cc(O)ccc2c2oc3cc(O)ccc3c12` [Coumestrol]: the EC50 under setting [2] turned out to be 8.5 µM.

Regarding `COc1cc(/C=C/C(=O)CC(=O)/C=C/c2ccc(O)c(OC)c2)ccc1O` [Curcumin], the EC50 entry (Table 1, result in words) is listed as “does not bind”.

With `O=c1c(-c2ccc(O)cc2)coc2cc(O)ccc12` [Daidzein], the EC50 under setting [2] came to 470 µM.

Turning to `O=c1c(-c2ccc(O)cc2)coc2cc(O[C@@H]3O[C@H](CO)[C@@H](O)[C@H](O)[C@H]3O)ccc12` [Daidzin], the EC50 entry under setting [1] is given as “does not bind*”.

With `C=CCSCC=C` [Diallylsulfide], the EC50 entry under setting [1] is “does not bind*”.

Regarding `COc1ccc(-c2cc(=O)c3c(O)cc(O[C@@H]4O[C@H](CO[C@@H]5O[C@@H](C)[C@H](O)[C@@H](O)[C@H]5O)[C@@H](O)[C@H](O)[C@H]4O)cc3o2)cc1O` [Diosmin], the 50% effective concentration (EC50) entry under setting [1] is given as “does not bind*”.

For the compound `OC[C@H](Cc1cccc(O)c1)[C@H](CO)Cc1cccc(O)c1` [Enterodiol], the EC50 under setting [2] is greater than 500 µM.

On to `O=C1OC[C@H](Cc2cccc(O)c2)[C@H]1Cc1cccc(O)c1` [Enterolacton], for which the 50% effective concentration (EC50) under setting [2] is greater than 500 µM.

On to `Oc1cc(O)c2c(c1)O[C@H](c1ccc(O)c(O)c1)[C@H](O)C2` [Epicatechin], for which the EC50 under setting [2] is greater than 500 µM.

Take `Oc1ccc([C@H]2COc3cc(O)ccc3C2)cc1` [Equol]: the EC50 under setting [2] worked out at 60 µM.

Take `O=C1C[C@@H](c2ccc(O)c(O)c2)Oc2cc(O)cc(O)c21` [Eriodictyol]: the EC50 is, setting by setting: under setting [2], 66 µM; under setting [3], 66 µM.

Regarding `C[C@]12CC[C@@H]3c4ccc(O)cc4CC[C@H]3[C@@H]1CCC2=O` [Estron], under setting [1], the concentration for a half-maximal effect (EC50) entry is “does not bind*”.

Turning to `CCOC(=O)C=Cc1ccccc1` [Ethylcinnamate], the EC50 under setting [2] was determined as 2700 µM.

As to `C=CCc1ccc(O)c(OC)c1` [Eugenol], under setting [2], the EC50 came out at 420 µM.

Regarding `COc1cc(/C=C/C(=O)O)ccc1O` [Ferrulic acid], where the note is “Table 1, result in words”, the EC50 result is “does not bind”.

Take `COc1ccc(-c2coc3cc(O)ccc3c2=O)cc1` [Formononetin]: the EC50 result under setting [1] was “does not bind*”.

Take `O=c1c(O)c(-c2ccccc2)oc2cc(O)cc(O)c12` [Galangin]: the 50% effective concentration (EC50) under setting [2] amounted to 143 µM.

`O=C(O)c1cc(O)c(O)c(O)c1` [Gallic acid] displayed an EC50 of 128 µM.

In turn, `O=c1c(-c2ccc(O)cc2)coc2cc(O)cc(O)c12` [Genistein] yielded an EC50 of 22 µM.

As to `O=c1c(-c2ccc(O)cc2)coc2cc(O[C@@H]3O[C@H](CO)[C@@H](O)[C@H](O)[C@H]3O)cc(O)c12` [Genistin], the EC50 entry under setting [1] is listed as “does not bind*”.

`COc1ccc([C@@H]2CC(=O)c3c(O)cc(O[C@@H]4O[C@H](CO[C@@H]5O[C@@H](C)[C@H](O)[C@@H](O)[C@H]5O)[C@@H](O)[C@H](O)[C@H]4O)cc3O2)cc1O` [Hesperidin]: the EC50 under setting [2] is greater than 500 µM.

As to `O=c1c(O[C@@H]2O[C@H](CO)[C@H](O)[C@H](O)[C@H]2O)c(-c2ccc(O)c(O)c2)oc2cc(O)cc(O)c12` [Hyperoside], the EC50 entry (Table 1, result in words) is on record as “does not bind”.

For `OCc1c[nH]c2ccccc12` [Indol-3-Carbinol], the EC50 under setting [2] is greater than 500 µM.

As to `O=c1c(OC2OC(CO)C(O)C(O)C2O)c(-c2ccc(O)c(O)c2)oc2cc(O)cc(O)c12` (stereo not shown) [Isoquercetrin], the EC50 is, setting by setting: under setting [2], 52 µM; under setting [3], 53 µM.

As to `O=c1c(O)c(-c2ccc(O)cc2)oc2cc(O)cc(O)c12` [Kaempferol], the EC50 is, setting by setting: under setting [2], 467 µM; under setting [3], 467 µM.

With `C=CC(C)(O)CCC=C(C)C` (stereo not shown) [Linalool], under setting [1], the 50% effective concentration (EC50) result is given as “does not bind*”.

In the case of `O=c1cc(-c2ccc(O)c(O)c2)oc2cc(O)cc(O)c12` [Luteolin], the EC50 reads like this: under setting [2], 4 µM; under setting [3], 4 µM.

Take `O=c1c(O)c(-c2cc(O)c(O)c(O)c2)oc2cc(O)cc(O)c12` [Myricetin]: the EC50 under setting [2] worked out at 53 µM.

In the case of `O=C1C[C@@H](c2ccc(O)cc2)Oc2cc(O)cc(O)c21` [Narigenin], the EC50 under setting [3] is 81 µM.

For `CC(C(=O)c1ccc(O)cc1O)c1ccc(O)cc1` (stereo not shown) [ODMA, O-Desmethyl-angolenain], the EC50 under setting [2] amounted to 67 µM.

`C=CC(C)=CCC=C(C)C` [Ocimene]: the EC50 entry under setting [1] is listed as “does not bind*”.

As to `COc1ccc(-c2coc3cc(O[C@@H]4O[C@H](CO)[C@@H](O)[C@H](O)[C@H]4O)ccc3c2=O)cc1` [Ononin], under setting [1], the half-maximal effective concentration (EC50) result was “does not bind*”.

As to `O=C(CCc1ccc(O)cc1)c1c(O)cc(O)cc1O` [Phloretin], under setting [2], the EC50 was determined as 20 µM.

`O=C(CCc1ccc(O)cc1)c1c(O)cc(O)cc1O[C@@H]1O[C@H](CO)[C@@H](O)[C@H](O)[C@H]1O` [Phloridzin]: the EC50 under setting [2] was greater than 500 µM.

As for `Oc1cc(O)c2c(c1)O[C@H](c1ccc(O)c(O)c1)[C@H](O)[C@H]2c1c(O)cc(O)c2c1O[C@H](c1ccc(O)c(O)c1)[C@H](O)C2` [Procyanidin B2], under setting [1], the EC50 entry was “does not bind*”.

As to `O=C(O)c1ccc(O)c(O)c1` [Protocatechuic acid], the EC50 entry under setting [1] is “does not bind*”.

Consider `COc1cc(O)c2c(=O)c(-c3ccc(O)cc3)coc2c1` [Prunetin], for which the concentration giving a half-maximal response (EC50) entry under setting [1] is “does not bind*”.

For the compound `O=c1c(-c2ccc(O)cc2)coc2c([C@@H]3O[C@H](CO)[C@@H](O)[C@H](O)[C@H]3O)c(O)ccc12` [Puerarin], the 50% effective concentration (EC50) result under setting [1] is recorded as “does not bind*”.

Regarding `O=c1c(O)c(-c2ccc(O)c(O)c2)oc2cc(O)cc(O)c12` [Quercetin], the EC50 reads like this: under setting [2], 2.6 µM; under setting [3], 2.6 µM.

`O=C(/C=C/c1ccc(O)c(O)c1)O[C@H](Cc1ccc(O)c(O)c1)C(=O)O` [Rosmarinic acid]: the EC50 under setting [2] came out at 7.8 µM and the EC50 under setting [3] stood at 7.8 µM.

The compound `C=CCc1ccc2c(c1)OCO2` [Safrol] gave an EC50 of 2250 µM.

Turning to `O=C(/C=C/c1ccc(O)c2c1[C@H](C(=O)O[C@H](Cc1ccc(O)c(O)c1)C(=O)O)[C@@H](c1ccc(O)c(O)c1)O2)O[C@H](Cc1ccc(O)c(O)c1)C(=O)O` [Salvianolic acid B], under setting [3], the EC50 is 292 µM.

`c1cc2c(cc1[C@H]1OC[C@H]3[C@@H]1CO[C@@H]3c1ccc3c(c1)OCO3)OCO2` [Sesamin]: the EC50 entry (Table 1, result in words) is listed as “does not bind”.

Take `COc1ccc(-c2coc3cc(O[C@@H]4O[C@H](CO)[C@@H](O)[C@H](O)[C@H]4O)cc(O)c3c2=O)cc1` [Sissotrin]: the EC50 result under setting [1] is given as “does not bind*”.

In the case of `O=C1c2c(O)cc(O)cc2O[C@H](c2ccc(O)c(O)c2)[C@H]1O` [Taxifolin], the EC50 under setting [3] was 275 µM.

Turning to `Cc1ccc(C(C)C)c(O)c1` [Thymol], the EC50 turned out to be 695 µM (EC50, Table 1, tested substances) and 695 µM (EC50, Table 3, active substances in Oregano).

On to `C[C@H]1[C@H](C)CC[C@]2(C(=O)O)CC[C@]3(C)C(=CC[C@@H]4[C@@]5(C)CC[C@H](O)C(C)(C)[C@@H]5CC[C@]43C)[C@H]12` [Ursolsäure], for which, under setting [3], the EC50 is greater than 500 µM.

As for `COc1cc(C(=O)O)ccc1O` [Vanillic acid], the EC50 under setting [3] was greater than 500 µM.

Take `O=c1cc(-c2ccc(O)cc2)oc2c([C@@H]3O[C@H](CO)[C@@H](O)[C@H](O)[C@H]3O)c(O)cc(O)c12` [Vitexin]: the EC50 under setting [3] stood at 156 µM.

With `O=C(O)/C=C/c1ccccc1O` [o-Coumaric acid], under setting [1], the concentration for a half-maximal effect (EC50) result was “does not bind*”.

Take `O=C(O)/C=C/c1ccc(O)cc1` [p-Coumaric acid]: the EC50 runs as follows: under setting [2], greater than 500 µM; under setting [3], greater than 500 µM.

With `Cc1ccc(C(C)C)cc1` [p-Cymene], the EC50 result under setting [1] was “does not bind*”.

Turning to `C/C1=C\CC/C(C)=C/CC(C)(C)/C=C/C1` [α-Humulene], the EC50 result under setting [1] is “does not bind*”.

`C=C1CC/C=C(\C)CC[C@@H]2[C@@H]1CC2(C)C` [β-Caryophyllene]: the EC50 result under setting [1] is “does not bind*”.
